Reference: the supplement of paper PMC8617591

Experiments:
[1] = test system: Mycobacterium tuberculosis Erdman (autoluminescent); test: total FIC50 (Loewe) at 50% inhibition, three-drug combination (log2); higher = more antagonistic
Experimental: (§1)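 DiaMOND equipotent three-drug combination dose responses (10 doses, 1.5- or 2-fold spacing, centred on IC90) against autoluminescent M. tuberculosis Erdman in 8 in vitro models. Read-out is OD600, or luminescence for the intracellular and dormancy models, normalised to untreated wells. Hill-fit Einf, AUC25 and GRinf are potency metrics; FIC50 and FIC90 are total Loewe fractional inhibitory concentrations as log2 (negative = synergy).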

[2] = test system: Mycobacterium tuberculosis Erdman (autoluminescent); test: total FIC90 (Loewe) at 90% inhibition, three-drug combination (log2); higher = more antagonistic
Experimental: as §1

[3] = test system: Mycobacterium tuberculosis Erdman (autoluminescent); test: Einf, fitted maximum growth inhibition of three-drug combination (fraction); higher = stronger maximal inhibition
Experimental: as §1

[4] = test system: Mycobacterium tuberculosis Erdman (autoluminescent); test: AUC25, normalised area under dose response up to IC25 (three-drug combination) (fraction (0-1)); higher = more potent at low dose
Experimental: as §1

[5] = test system: Mycobacterium tuberculosis Erdman (autoluminescent); test: GRinf, maximum normalised growth rate inhibition (three-drug combination) (unitless (-1 to 1)); higher = less effect (negative = killing)
Experimental: as §1

COc1nc2ccc(Br)cc2cc1[C@@H](c1ccccc1)[C@@](O)(CCN(C)C)c1cccc2ccccc12 [bedaquiline] + CC(=O)NC[C@H]1CN(c2ccc(N3CCOCC3)c(F)c2)C(=O)O1 [linezolid] + O=[N+]([O-])c1cn2c(n1)OC[C@@H](OCc1ccc(OC(F)(F)F)cc1)C2 [pretomanid]
Conditions	AUC25, [4]	Einf, [3]	GRinf, [5]	total FIC50, [1]	total FIC90, [2]
in vitro model: acidic pH 5.7, time point: constant (~7 days, model-specific)	0.118	0.937	-0.508	0.414	–
in vitro model: acidic pH 5.7, time point: terminal (~4-5 doublings, model-specific)	0.0812	0.992	-0.56	0.58	0.474
in vitro model: intracellular J774, time point: constant = terminal	–	0.99	-0.78	–	1.25

Conditions	AUC25, [4]	Einf, [3]	GRinf, [5]	total FIC50, [1]	total FIC90, [2]
in vitro model: butyrate, time point: constant (~7 days, model-specific)	0.105	0.943	-0.119	0.731	1.49
in vitro model: butyrate, time point: terminal (~4-5 doublings, model-specific)	0.0754	0.97	-0.0976	0.645	0.887
in vitro model: cholesterol 0.05 mM, time point: constant (~7 days, model-specific)	0.136	0.738	-0.284	0.169	–
in vitro model: cholesterol 0.05 mM, time point: terminal (~4-5 doublings, model-specific)	0.141	0.962	-0.303	0.274	0.577
in vitro model: cholesterol-high 0.2 mM, time point: constant (~7 days, model-specific)	0.112	0.948	-0.376	0.197	–
in vitro model: cholesterol-high 0.2 mM, time point: terminal (~4-5 doublings, model-specific)	0.115	1	-0.834	-0.088	0.591
in vitro model: dormancy (butyrate + nitrate, low O2), time point: constant (~7 days, model-specific)	0.0459	0.92	0.23	-0.22	-0.616
in vitro model: dormancy (butyrate + nitrate, low O2), time point: terminal (~4-5 doublings, model-specific)	0.0294	0.988	-0.115	-0.261	-1.1
in vitro model: standard 7H9 glycerol, time point: constant = terminal	0.0809	0.955	-0.108	0.296	0.191
in vitro model: valerate, time point: constant (~7 days, model-specific)	0.139	0.929	-0.172	0.447	1.63
in vitro model: valerate, time point: terminal (~4-5 doublings, model-specific)	0.115	0.958	-0.132	0.00392	1.32

COc1nc2ccc(Br)cc2cc1[C@@H](c1ccccc1)[C@@](O)(CCN(C)C)c1cccc2ccccc12 [bedaquiline] + CC(C)/N=c1\cc2n(-c3ccc(Cl)cc3)c3ccccc3nc-2cc1Nc1ccc(Cl)cc1 [clofazimine] + CC(=O)NC[C@H]1CN(c2ccc(N3CCOCC3)c(F)c2)C(=O)O1 [linezolid]
Conditions	AUC25, [4]	Einf, [3]	GRinf, [5]	total FIC50, [1]	total FIC90, [2]
in vitro model: acidic pH 5.7, time point: constant (~7 days, model-specific)	0.0792	0.874	-0.465	0.0418	–
in vitro model: acidic pH 5.7, time point: terminal (~4-5 doublings, model-specific)	0.0781	0.97	-0.331	0.786	0.299
in vitro model: intracellular J774, time point: constant = terminal	–	0.929	-0.17	–	0.186

Conditions	AUC25, [4]	Einf, [3]	GRinf, [5]	total FIC50, [1]	total FIC90, [2]
in vitro model: butyrate, time point: constant (~7 days, model-specific)	0.0701	0.947	-0.105	0.0722	-0.55
in vitro model: butyrate, time point: terminal (~4-5 doublings, model-specific)	0.0486	0.977	-0.115	0.112	-0.466
in vitro model: cholesterol 0.05 mM, time point: constant (~7 days, model-specific)	0.14	0.769	-0.304	-0.461	–
in vitro model: cholesterol 0.05 mM, time point: terminal (~4-5 doublings, model-specific)	0.137	0.951	-0.374	-0.129	-0.783
in vitro model: cholesterol-high 0.2 mM, time point: constant (~7 days, model-specific)	0.0852	0.944	-0.281	-0.437	-0.594
in vitro model: cholesterol-high 0.2 mM, time point: terminal (~4-5 doublings, model-specific)	0.0962	0.999	-0.488	-0.195	-0.484
in vitro model: dormancy (butyrate + nitrate, low O2), time point: constant (~7 days, model-specific)	0.0703	0.913	0.219	-0.36	-0.911
in vitro model: dormancy (butyrate + nitrate, low O2), time point: terminal (~4-5 doublings, model-specific)	0.0497	0.99	-0.161	-0.24	-0.848
in vitro model: standard 7H9 glycerol, time point: constant = terminal	0.0911	0.962	-0.0979	-0.27	-0.871
in vitro model: valerate, time point: constant (~7 days, model-specific)	0.134	0.931	-0.127	0.0537	-0.00887
in vitro model: valerate, time point: terminal (~4-5 doublings, model-specific)	0.0869	0.944	-0.0541	0.263	1.19
